Assay results published in article PMC7862291, “Full-length in meso structure and mechanism of rat kynurenine 3-monooxygenase inhibition” (Communications Biology, 2021).
“And” between values parts separate entries of the source, which are not always exact repeats. Equal values may be shown once.

Columns and labels:
[1] = target: T1, HEK293 cells stably expressing human KMO (Homo sapiens, UniProt O15229); test: Cell-based human KMO inhibition assay (LC/MS of 3-hydroxykynurenine)
T1 construct: expressed in transfected cells
T1 sequence (O15229 whole entry): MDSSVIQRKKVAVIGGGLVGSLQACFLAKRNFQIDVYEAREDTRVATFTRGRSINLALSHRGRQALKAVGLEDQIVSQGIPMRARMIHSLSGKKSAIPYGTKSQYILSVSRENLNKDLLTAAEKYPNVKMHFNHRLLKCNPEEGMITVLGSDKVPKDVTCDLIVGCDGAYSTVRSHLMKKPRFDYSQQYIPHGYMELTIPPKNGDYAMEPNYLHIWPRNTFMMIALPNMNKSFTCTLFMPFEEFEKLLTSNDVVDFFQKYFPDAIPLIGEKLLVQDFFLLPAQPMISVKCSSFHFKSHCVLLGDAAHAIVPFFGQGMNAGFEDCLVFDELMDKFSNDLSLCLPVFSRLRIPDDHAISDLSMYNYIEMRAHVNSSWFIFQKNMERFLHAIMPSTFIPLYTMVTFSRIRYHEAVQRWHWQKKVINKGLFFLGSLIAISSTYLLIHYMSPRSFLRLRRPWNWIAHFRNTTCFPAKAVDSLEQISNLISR
Method in brief: (§1)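 HEK293 lines stably expressing human or rat KMO, pre-incubated ~30 min at 37 °C with compound (final 0–30 μM, 0.3% DMSO) in HBSS/20 mM HEPES. Then 2 h at 37 °C with 0.2 mM kynurenine (solution concentration). 3-Hydroxykynurenine in cell extracts quantified by LC-MS/MS, positive ESI.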

Rat KMO = target: T2, Rat KMO (Rattus norvegicus, UniProt O88867); test: Rat KMO enzyme (cell-free) assay, NADPH consumption by absorbance; assay type: biochemical
T2 construct: The GST-tagged full-length KMO (1-478) baculovirus vector contained a thrombin cleavage site; GST (thrombin cleavage site between GST and KMO) (N, cleaved yes); made in house; host or cells: Spodoptera frugiperda (Sf9), baculovirus
T2 sequence (O88867 whole entry): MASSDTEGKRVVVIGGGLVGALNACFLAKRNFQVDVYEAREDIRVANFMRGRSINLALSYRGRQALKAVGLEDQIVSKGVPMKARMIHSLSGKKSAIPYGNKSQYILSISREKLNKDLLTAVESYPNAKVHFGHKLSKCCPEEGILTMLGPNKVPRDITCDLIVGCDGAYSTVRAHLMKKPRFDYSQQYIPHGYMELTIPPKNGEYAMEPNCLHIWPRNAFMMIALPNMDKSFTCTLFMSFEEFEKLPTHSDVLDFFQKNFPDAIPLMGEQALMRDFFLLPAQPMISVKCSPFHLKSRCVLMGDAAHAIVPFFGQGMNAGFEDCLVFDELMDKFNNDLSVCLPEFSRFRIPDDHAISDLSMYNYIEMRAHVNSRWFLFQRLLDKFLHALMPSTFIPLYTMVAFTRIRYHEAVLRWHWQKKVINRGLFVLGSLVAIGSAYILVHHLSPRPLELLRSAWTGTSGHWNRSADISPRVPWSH
Method in brief: (§2)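 Recombinant human KMO or purified full-length rat KMO, pre-incubated 5 min with compound in HEPES buffer pH ~7.9 with MgCl2, EGTA, DTT, Tween20. Substrate mix of 2.4 mM kynurenine and 0.6 mM NADPH (solution concentrations) added; 90 min at 30 °C. Stopped with maleimide, then WST-9/1-methoxy-PMS colour read-out.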

hKMO = target: T3, hKMO (Homo sapiens, UniProt O15229); test: Human KMO enzyme (cell-free) assay, NADPH consumption by absorbance; assay type: biochemical
T3 construct: purchased Origene
T3 sequence (O15229 whole entry): as the sequence (O15229 whole entry) above
Method in brief: as §2

[2] = target: T4, HEK293 cells stably expressing rat KMO (Rattus norvegicus, UniProt O88867); test: Cell-based rat KMO inhibition assay (LC/MS of 3-hydroxykynurenine)
T4 construct: expressed in transfected cells
T4 sequence (O88867 whole entry): as the sequence (O88867 whole entry) above
Method in brief: as §1

inhibition at 0.03 µM ([1]; HEK293, conc 0.03 μM, duplicates, read-out: inhibition rate, Hs-KMO cellular assay (Figure 1C source data)): 51.3% | inhibition at 0.1 µM ([1]; HEK293, conc 0.1 μM, duplicates, read-out: inhibition rate, Hs-KMO cellular assay (Figure 1C source data)): 76.7% | inhibition at 0.3 µM ([1]; HEK293, conc 0.3 μM, duplicates, read-out: inhibition rate, Hs-KMO cellular assay (Figure 1C source data)): 92.2% | inhibition at 1 µM ([1]; HEK293, conc 1 μM, duplicates, read-out: inhibition rate, Hs-KMO cellular assay (Figure 1C source data)): 102% | inhibition at 3 µM ([1]; HEK293, conc 3 μM, duplicates, read-out: inhibition rate, Hs-KMO cellular assay (Figure 1C source data)): 104% | inhibition at 10 µM ([1]; HEK293, conc 10 μM, duplicates, read-out: inhibition rate, Hs-KMO cellular assay (Figure 1C source data)): 104% | inhibition at 30 µM ([1]; HEK293, conc 30 μM, duplicates, read-out: inhibition rate, Hs-KMO cellular assay (Figure 1C source data)): 105% | IC50 ([1]; HEK293 cells expressing human KMO, LC/MS, read-out: Human cell-based assay IC50): 30 nM | inhibition rate, Hs-KMO cellular assay (Figure 1C source data) ([1]; conc 0.03 μM, duplicates): 49.094% | inhibition rate, Hs-KMO cellular assay (Figure 1C source data) ([1]; conc 0.1 μM, duplicates): 80.095% | inhibition rate, Hs-KMO cellular assay (Figure 1C source data) ([1]; conc 0.3 μM, duplicates): 94.377% | inhibition rate, Hs-KMO cellular assay (Figure 1C source data) ([1]; conc 1 μM, duplicates): 98.875% | inhibition rate, Hs-KMO cellular assay (Figure 1C source data) ([1]; conc 3 μM, duplicates): 103.175% | inhibition rate, Hs-KMO cellular assay (Figure 1C source data) ([1]; conc 10 μM, duplicates): 102.973% | inhibition rate, Hs-KMO cellular assay (Figure 1C source data) ([1]; conc 30 μM, duplicates): 104.572% | IC50 (Rat KMO; cell-free enzyme assay, high kynurenine): 150 nM | inhibition rate, Rat-KMO cell-free assay (Figure 1B source data) (Rat KMO; conc 0.03 μM, duplicates): 20.744% | inhibition at 0.03 µM (Rat KMO; conc 0.03 μM, duplicates, read-out: inhibition rate, Rat-KMO cell-free assay (Figure 1B source data)): 18% | inhibition rate, Rat-KMO cell-free assay (Figure 1B source data) (Rat KMO; conc 0.1 μM, duplicates): 47.122% | inhibition at 0.1 µM (Rat KMO; conc 0.1 μM, duplicates, read-out: inhibition rate, Rat-KMO cell-free assay (Figure 1B source data)): 46% | inhibition rate, Rat-KMO cell-free assay (Figure 1B source data) (Rat KMO; conc 0.3 μM, duplicates): 63.717% | inhibition at 0.3 µM (Rat KMO; conc 0.3 μM, duplicates, read-out: inhibition rate, Rat-KMO cell-free assay (Figure 1B source data)): 62.8% | inhibition rate, Rat-KMO cell-free assay (Figure 1B source data) (Rat KMO; conc 1 μM, duplicates): 81.108% | inhibition at 1 µM (Rat KMO; conc 1 μM, duplicates, read-out: inhibition rate, Rat-KMO cell-free assay (Figure 1B source data)): 84.3% | inhibition rate, Rat-KMO cell-free assay (Figure 1B source data) (Rat KMO; conc 3 μM, duplicates): 90.360% | inhibition at 3 µM (Rat KMO; conc 3 μM, duplicates, read-out: inhibition rate, Rat-KMO cell-free assay (Figure 1B source data)): 87.2% | inhibition rate, Rat-KMO cell-free assay (Figure 1B source data) (Rat KMO; conc 10 μM, duplicates): 90.175% | inhibition at 10 µM (Rat KMO; conc 10 μM, duplicates, read-out: inhibition rate, Rat-KMO cell-free assay (Figure 1B source data)): 91.4% | inhibition rate, Rat-KMO cell-free assay (Figure 1B source data) (Rat KMO; conc 30 μM, duplicates): 94.310% | inhibition at 30 µM (Rat KMO; conc 30 μM, duplicates, read-out: inhibition rate, Rat-KMO cell-free assay (Figure 1B source data)): 91.7% | inhibition rate, Rat-KMO cell-free assay (Figure 1B source data) (Rat KMO; conc 100 μM, duplicates): 101.150% | inhibition at 100 µM (Rat KMO; conc 100 μM, duplicates, read-out: inhibition rate, Rat-KMO cell-free assay (Figure 1B source data)): 89.9% | IC50 (hKMO; cell-free enzyme assay, high kynurenine, read-out: Human KMO IC50): 7.1 nM | inhibition rate, Hs-KMO cell-free assay (Figure 1A source data) (hKMO; conc 0.0003 μM, duplicates): 0.420% and -1.736% | inhibition rate, Hs-KMO cell-free assay (Figure 1A source data) (hKMO; conc 0.001 μM, duplicates): 9.914% | inhibition at 0.001 µM (hKMO; conc 0.001 μM, duplicates, read-out: inhibition rate, Hs-KMO cell-free assay (Figure 1A source data)): 12.1% | inhibition rate, Hs-KMO cell-free assay (Figure 1A source data) (hKMO; conc 0.003 μM, duplicates): 25.289% | inhibition at 0.003 µM (hKMO; conc 0.003 μM, duplicates, read-out: inhibition rate, Hs-KMO cell-free assay (Figure 1A source data)): 27.2% | inhibition rate, Hs-KMO cell-free assay (Figure 1A source data) (hKMO; conc 0.01 μM, duplicates): 59.651% | inhibition at 0.01 µM (hKMO; conc 0.01 μM, duplicates, read-out: inhibition rate, Hs-KMO cell-free assay (Figure 1A source data)): 57.4% | inhibition rate, Hs-KMO cell-free assay (Figure 1A source data) (hKMO; conc 0.03 μM, duplicates): 87.349% | inhibition at 0.03 µM (hKMO; conc 0.03 μM, duplicates, read-out: inhibition rate, Hs-KMO cell-free assay (Figure 1A source data)): 85.6% | inhibition rate, Hs-KMO cell-free assay (Figure 1A source data) (hKMO; conc 0.1 μM, duplicates): 95.022% | inhibition at 0.1 µM (hKMO; conc 0.1 μM, duplicates, read-out: inhibition rate, Hs-KMO cell-free assay (Figure 1A source data)): 96.5% | inhibition rate, Hs-KMO cell-free assay (Figure 1A source data) (hKMO; conc 0.3 μM, duplicates): 105.860% | inhibition at 0.3 µM (hKMO; conc 0.3 μM, duplicates, read-out: inhibition rate, Hs-KMO cell-free assay (Figure 1A source data)): 100% | inhibition rate, Hs-KMO cell-free assay (Figure 1A source data) (hKMO; conc 1 μM, duplicates): 100.287% | inhibition at 1 µM (hKMO; conc 1 μM, duplicates, read-out: inhibition rate, Hs-KMO cell-free assay (Figure 1A source data)): 102% | inhibition at 0.1 µM ([2]; HEK293, conc 0.1 μM, duplicates, read-out: inhibition rate, Rat-KMO cellular assay (Figure 1D source data)): 6.06% | inhibition at 0.3 µM ([2]; HEK293, conc 0.3 μM, duplicates, read-out: inhibition rate, Rat-KMO cellular assay (Figure 1D source data)): 28.6% | inhibition at 1 µM ([2]; HEK293, conc 1 μM, duplicates, read-out: inhibition rate, Rat-KMO cellular assay (Figure 1D source data)): 29.2% | inhibition at 3 µM ([2]; HEK293, conc 3 μM, duplicates, read-out: inhibition rate, Rat-KMO cellular assay (Figure 1D source data)): 55.7% | inhibition at 10 µM ([2]; HEK293, conc 10 μM, duplicates, read-out: inhibition rate, Rat-KMO cellular assay (Figure 1D source data)): 81.2% | inhibition at 30 µM ([2]; HEK293, conc 30 μM, duplicates, read-out: inhibition rate, Rat-KMO cellular assay (Figure 1D source data)): 94.7% | IC50 ([2]; HEK293 cells expressing rat KMO, LC/MS): 1900 nM | inhibition rate, Rat-KMO cellular assay (Figure 1D source data) ([2]; conc 0.1 μM, duplicates): 5.770% | inhibition rate, Rat-KMO cellular assay (Figure 1D source data) ([2]; conc 0.3 μM, duplicates): 28.560% | inhibition rate, Rat-KMO cellular assay (Figure 1D source data) ([2]; conc 1 μM, duplicates): 33.805% | inhibition rate, Rat-KMO cellular assay (Figure 1D source data) ([2]; conc 3 μM, duplicates): 50.255% | inhibition rate, Rat-KMO cellular assay (Figure 1D source data) ([2]; conc 10 μM, duplicates): 82.819% | inhibition rate, Rat-KMO cellular assay (Figure 1D source data) ([2]; conc 30 μM, duplicates): 94.698%
Compound: Cc1cnn(-c2cccc(C(=O)O)c2)c1-c1ccc(Cl)c(F)c1 [Compound 2]
